Source: patent publication US8653271B2 (priority 2006, dated 2014)
≈ marks a conversion by molar mass, not a printed value.

Experiments:
[1] = format: physicochemical
Protocol: Equal amounts of the each of the codrug were distributed into labeled test-tubes (20 nmol in each tube). Care was taken to ensure that the entire codrug was dissolved and the solution remained clear. Hydrolysis of the carbonate codrug (˜20 nmol) was conducted in isotonic phosphate buffer pH 7.4 at 32° C. in a water-bath with continuous stirring. […] Samples were collected at predetermined time intervals and stored in the freezer at −20° C. until analyzed. All experiments were conducted in triplicate. An aliquot part (250 μL) of hydrolysis solutions was mixed with 750 μL of acetonitrile, vortexed for 30s, and analyzed by HPLC for the presence of codrug and the two corresponding parent drugs, as well as for the intermediate hydrolysis product, 23. […] A Brownlee C18 reversed-phase Spheri-5 μm column (220×4.6 mm) connected to a C18 reversed-phase guard column (15×3.2 mm) was utilized and detection of solutes was carried out at 215 nm. The mobile phase consisted of a mixture of acetonitrile: 0.1% trifluoroacetic acid adjusted to pH 3.0 with triethylamine (50:50, v/v). The mobile phase flow rate was 1.5 mL/min and 100 μL of hydrolysis sample was injected onto the column.

physchem = format: physicochemical; settings: thermodynamic from solid
Protocol: The solubilities of CB-NTXOL-BUPOH, hydroxybupropion, and 6-β-naltrexol were determined by adding excess quantity of drug to mineral oil or pre-warmed HEPES-buffered Hanks' salt solution pH 7.4 at 32° C. (skin surface temperature), with equilibration while shaking in a water bath at 60 rpm. Weighing 4 mg of each of the drugs and placing them in 1 ml of each of the respective solvents was enough to ensure that there was excess drug in solution. Samples were drawn into a pre-warmed glass syringe, filtered through a syringe filter (Mineral oil: Millex FG-13, Millipore, Billerica, Mass., USA, and buffer: nylon filter, Gelman, East Hills, N.Y., USA), and measured with respect to volume and diluted with an appropriate volume of acetonitrile or buffer. The drug from the buffer samples was immediately extracted by solid phase extraction as described above. Drugs in mineral oil were diluted with a hundred-fold volume of acetonitrile and extraction recoveries were >95% for all the drugs. The sampling procedure was done in triplicate, discarding the first 40% of the initial filtrate. […]. For buffer solubilities, samples were taken after 30 min of sonication (to minimize the hydrolysis of the codrug). No significant difference was found between 30 min sonication solubility measurements and equilibrium solubility measurements taken after 48 h for 6-β-naltrexol.

[2] = saturated solution in light mineral oil, human skin, 32° C., 48 h; codrug in 6-β-naltrexol equivalents
Protocol: Human skin harvested during abdominal reduction surgery was used for the diffusion studies. Skin sections were obtained by using a Padgett dermatome set to 250 μm; these sections were stored at −20° C. Stored skin samples were thawed to room temperature at the time of the experiment. A PermeGear flow-through (In-Line, Riegelsville, Pa., USA) diffusion cell system was used for the skin permeation studies. Skin surface temperature was maintained at 32° C. with a circulating water bath. Data was collected by using human skin from a single donor with three cells of 6-β-naltrexol and four cells CB-NTXOL-BUPOH. Because of normal human skin inter-subject permeation variability, the codrug was compared against 6-β-naltrexol permeation within each individual skin sample. These studies were repeated three times with skin from different human subject donors. The receiver solution was HEPES-buffered Hanks' balanced salt solution pH 7.4 set at a flow rate of 1.1 ml/h. […] A saturated solution of 6-β-naltrexol or CB-NTXOL-BUPOH in light mineral oil was applied to the skin in order to maintain a maximum and constant thermodynamic activity of the drug. Each cell was charged with 0.25 ml of the respective drug solution. […] All samples were immediately processed by solid phase extraction, evaporated under nitrogen, reconstituted, and analyzed for drug content by HPLC. The human tissue use was approved by the University of Kentucky Institutional Review Board.
Cumulative quantity of drug collected in the receiver compartment was plotted as a function of time. The flux value for a given experiment was obtained from the slope of the steady-state portion of the cumulative amount of drug permeated vs. time plot. Apparent permeability coefficient values were computed from Fick's First Law of diffusion:
Sink conditions were maintained in the receiver throughout the experiment, so ΔC was approximated by the drug concentration (solubility in this case) in the donor compartment.
The skin tissue was rinsed with filtered water and blotted with a paper towel. The tissue was tape-stripped twice to remove surface formulation. The area of skin with drug contact was cut out, chopped into tiny pieces, and placed in a pre-weighed vial. The vial was weighed to calculate the mass of the skin. Ten milliliters of acetonitrile was added to each vial, the vials vortexed, sonicated for 10 min, and placed in a shaker overnight. The following day, a 1 ml sample was obtained from the vials and placed in autosampler vials for analysis. […] Flux values and skin concentrations for each of the drugs were reported as mean±S.D and were statistically compared using a paired Student's t-test. Flux enhancement as well as drug disposition in the skin were considered significant at p<0.05.

[3] = Differential scanning calorimetry; format: physicochemical
[4] = Plasma hydrolysis of the carbonate codrug; format: in vitro ADME, guinea pig; settings: guinea pig plasma in vitro at 37° C.
Protocol: Guinea pig plasma, which was stored at −20° C., was thawed to room temperature. Known and sub-saturated amounts of the codrug (50 nmol) were added to approximately 2.0 ml of the guinea pig plasma and vortexed. Two-hundred μl aliquots of the spiked plasma were distributed into sealed vials, and incubated at 37° C. Samples were withdrawn at predetermined time intervals; 0, 0.5, 1, 2, 4, 6, 9, 24, 30, and 48 h. 500 μl of ACN was added to each sample to precipitate plasma protein. Each sample was vortexed and centrifuged at 10,000×g for 15 min. The supernatant was separated and evaporated under nitrogen at room temperature, and the residue was reconstituted with ACN for high-pressure liquid chromatography (HPLC) analysis. A standard curve was prepared from drug-spiked plasma samples processed by the same method. The amounts of the codrug remaining or parent drugs released were plotted against time. These hydrolytic profiles were fit to previously developed mathematical models using nonlinear least-squares regression analysis ([…]®, Micromath Inc., Salt Lake City, Utah) as described by the equations below: […]

[5] = human skin, values obtained from Kiptoo et al., cited from earlier work
[6] = Table 4; values obtained from Kiptoo et al.; cited from earlier work
[7] = humans; cited from earlier work

Cc1c(-c2cccc(Cl)c2)oc(=O)n1C(C)(C)COC(=O)Oc1ccc2c3c1OC1C(=O)CCC4(O)C(C2)N(CC2CC2)CCC314 (stereo not drawn) [Compound 25]
first-order rate constant k3 ([1]; generation of BUPOH from codrug 25, isotonic phosphate buffer pH 7.4): 0.0483 h⁻¹ | first-order rate constant k1 ([1]; hydrolysis at carbonate linker generating NTX (25) or NTXOL (26), isotonic phosphate buffer pH 7.4, 32° C.): 0.0179 h⁻¹

CC1NC(C)(C)COC1(O)c1cccc(Cl)c1 (racemic) [Compound 4, (+/−)-2-(3-chlorophenyl)-3,5,5-trimethyl-2-morpholinol]
solubility at 30 min (physchem; aqueous buffer, pH 7.4, 32° C., 30 min sonication, read-out: Hanks' buffer solubility): 3.85 mM (≈ 985 µg/mL) | solubility at 48 h (physchem; oil or lipid, 32° C., 48 h equilibration (Table 3), read-out: Light mineral oil solubility): 4.04 mM (≈ 1030 µg/mL) | Flux from mineral oil [2]: 25.89 nmol cm^−2 h^−1 | Mean activity of solid @ T = 25° C., a2 ([3]; calculated from melting point and heat of fusion): 0.34 | Heat of fusion, ΔHf ([3]; ±s.d., n = 3): 2.58 ± 0.012 kcal/mol | Guinea pig plasma half-life [4]: stable | In vitro flux ([5]; codrug as NTXOL equivalent flux): 25.89 ± 6.01 nmol cm^−2 h^−1 | In vitro lag time [5]: 7.83 ± 1.73 h | Light mineral oil solubility [6]: 4.04 ± 0.04 mM

O=C1CC[C@@]2(O)[C@H]3Cc4ccc(O)c5c4[C@@]2(CCN3CC2CC2)[C@H]1O5 [Compound 1, Naltrexone]
oral bioavailability [7]: 5-40%
